We go through two compounds from patent US4243812A, “Processes for the preparation of glyoxal-2-oxims” (Taiho Pharmaceutical Company, priority 1978, dated 1981).

Series [1] in a line: Acute toxicity (LD50, oral, mice). The settings on record: mouse, in vivo, dd-strain male mice 20 to 25 g, fasted overnight, suspended in 0.5% carboxymethyl cellulose, observed seven days. The source says:
The compounds to be tested were suspended in 0.5% carboxymethyl cellulose solution, and the suspension was orally administrated in variable amounts in response to the weights of dd-strain male mice having those ranging from 20 to 25 g which were forced to abstain from food overnight.

The test system of series [2] is carrageenin edema. Description: Anti-inflammatory activity (Carrageenin edema method). It counts as in vivo, rat (Wistar strain. The settings on record: 100 mg per kg oral, Wistar-strain male rats, 0.1 ml of 1% carrageenin s.c. left hind paw, edema weight after three hours, vs control group. The protocol: (2) Anti-inflammatory activity (Carrageenin edema method)
The compounds to be tested were suspended in 0.5% carboxymethyl cellulose solution, and the suspension was orally administrated in 100 mg per kg of Wistarstrain male rats having their weight range of 130 to 170 g which were forced to abstain from food overnight. These rats were then injected subcutaneously into their left hind paws each with 0.1 ml of a physiological NaCl solution having dissolved therein carrageen in 1% concentration. After three hours from said injection, the rats were killed, both hind legs were cut out and promptly weighed. There is assumed as weight of edema a value obtained by deducting a weight of untreated hind leg from that of the carrageenin injected hind leg of the rat. Inhibition ratio of a sample-administrated group to a control group has been sought. The control group was administrated only with 0.5% […] solution in the same manner.
(In the carrageenan paw model, swelling and tenderness develop within hours.)

The subject of series [3] is acetic acid stretching symptom. Description: Analgesic activity (Acetic acid stretching method). It counts as in vivo, mouse (ddy-strain). As to conditions: 100 mg per kg oral, ddy-strain mice, 0.2 ml of 0.7% acetic acid intraperitoneal. On the procedure:
(3) Analgesic activity (Acetic acid stretching method)
After the compounds to be tested were orally administrated in 100 mg per kg of ddy-strain mice having their weight range of 20 to 25 g, 0.2 ml of 0.7% acetic acid was intra-peritoneally administrated to each animal to observe stretching symptom thereby having found the inhibition ratio (%).

On to `O=C(C=NO)c1cc(-c2ccccc2)no1` [(3-Phenylisoxazole-5-yl)glyoxal-2-oxim, (3-phenylisoxazole-5-yl)glyoxal-2-oxim], for which the median lethal dose (LD50) at 168 h in series [1] was determined as 1690 mg/kg. Also, the “Anti-inflammatory activity (Carrageenin edema method), inhibition ratio” value in series [2] is 56%. Further, the “Analgesic activity (Stretching method), inhibition ratio” value in series [3] is reported as 75%.
The matching figures for `Cc1cc(C(=O)C=NO)on1` [(3-Methylisoxazole-5-yl)glyoxal-2-oxim, (3-methylisoxazole-5-yl)glyoxal-2-oxim]: 890 mg/kg, 83% and 50%.

The term LD50 denotes the dose expected to kill half of the subjects tested.
